In DBAASP one finds MIC data, which are given here for 5 compounds.

In general, MIC refers to the lowest concentration that inhibits growth of the organism. Read a high MIC as weaker potency.

Holding throughout (assay): ≥ marks a high value that may be exact or a test limit, other limits are often not marked, values filed in µg/mL are converted to µM
For experiment [1], the system named is Pseudomonas aeruginosa ATCC 27853.
For experiment [2], the system named is Staphylococcus aureus NCTC 10788.
The test system of experiment [3] is Escherichia coli NCTC 10418.
For experiment [4], the system named is Enterococcus faecalis NCTC 12697.
Experiment [5] has as its system Staphylococcus aureus NCTC 12493.
Experiment [6] deals with Candida albicans NCPF 1467.
In experiment [7] the test system is Klebsiella pneumoniae ATCC 700603.
Experiment [8] concerns Escherichia coli ATCC 25922.
In experiment [9] the test system is Candida albicans ATCC 90028.
For experiment [10], the system named is Staphylococcus aureus ATCC 43300.
For experiment [11], the system named is Acinetobacter baumannii ATCC 19606.
Experiment [12] relates to Cryptococcus neoformans ATCC 208821.
Experiment [13] relates to Candida albicans ATCC 14053.
For experiment [14], the system named is Klebsiella pneumoniae ATCC 13883.
For experiment [15], the system named is Staphylococcus aureus ATCC 29213.
Experiment [16] deals with Enterococcus faecalis ATCC 29212.

In brackets after ≈: the same amount, converted by molar mass. Bounds are passed on as bounds.

In the case of `CC[C@H](C)[C@H](NC(=O)[C@@H]1CCCN1C(=O)[C@H](CC(C)C)NC(=O)[C@@H](N)Cc1ccccc1)C(=O)N[C@H](C(=O)N[C@@H](C)C(=O)N[C@@H](CCCCN)C(=O)N[C@@H](CC(C)C)C(=O)N[C@@H](CC(C)C)C(=O)N[C@@H](CO)C(=O)NCC(=O)N[C@@H](CC(C)C)C(=O)N[C@@H](CC(C)C)C(=O)NCC(=O)N[C@@H](CCCN=C(N)N)C(=O)N[C@@H](CCCCN)C(=O)N[C@@H](CCCCN)C(=O)N[C@@H](CCCN=C(N)N)C(=O)N[C@@H](CCCN=C(N)N)C(=O)N[C@@H](CCC(N)=O)C(=O)N[C@@H](CCCN=C(N)N)C(=O)N[C@@H](CCCN=C(N)N)C(=O)N[C@@H](CCCN=C(N)N)C(N)=O)C(C)C` [FLPIVAKLLSGLLGRKKRRQRRR], the minimal inhibitory concentration (MIC) was 2 µM (≈ 5.52 µg/mL) in experiment [1]; 1 µM (≈ 2.76 µg/mL) in [2]; 2 µM (≈ 5.52 µg/mL) in experiment [3]; 2 µM (≈ 5.52 µg/mL) in experiment [4]; 2 µM (≈ 5.52 µg/mL) in experiment [5]; 1 µM (≈ 2.76 µg/mL) in experiment [6].
On to `CC(C)C[C@H](NC(=O)CNC(=O)[C@H](CO)NC(=O)CNC(=O)[C@H](Cc1cnc[nH]1)NC(=O)[C@H](CCCN=C(N)N)NC(=O)CN)C(=O)NCC(=O)N[C@@H](Cc1cnc[nH]1)C(=O)N[C@@H](CO)C(=O)N[C@@H](CO)C(=O)N[C@@H](CO)C(=O)N[C@@H](Cc1cnc[nH]1)C(=O)NCC(=O)N[C@@H](CCC(N)=O)C(=O)N[C@@H](Cc1cnc[nH]1)C(=O)NCC(=O)N[C@@H](CO)C(=O)NCC(=O)N[C@@H](CO)C(=O)NCC(=O)N[C@@H](CCCN=C(N)N)C(=O)O` [GRHGSGLGHSSSHGQHGSGSGR], for which the minimal inhibitory concentration (MIC) in [7] is above 15.2 µM; in [1], above 15.2 µM; in experiment [8], above 15.2 µM; in [9], 15.2 µM (≈ 32 µg/mL); in experiment [10], above 15.2 µM; in experiment [11], above 15.2 µM. In [12], this compound returned a minimal inhibitory concentration (MIC) of 15.2 µM (≈ 32 µg/mL).
For `CC[C@H](C)[C@H](NC(=O)CNC(=O)CNC(=O)[C@H](CC(C)C)NC(=O)[C@@H](N)Cc1ccccc1)C(=O)N[C@@H](CC(C)C)C(=O)N[C@@H](CC(N)=O)C(=O)N[C@H](C(=O)N[C@H](C(=O)N[C@H](C(=O)NCC(=O)N[C@@H](CC(C)C)C(=O)N[C@@H](CC(C)C)C(N)=O)[C@@H](C)O)[C@@H](C)CC)[C@@H](C)O` [FLGGILNTITGLL], the minimal inhibitory concentration (MIC) in [2] was 30 µM (≈ 39.9 µg/mL); in experiment [6] it was at least 200 µM.
On to `CC[C@H](C)[C@H](NC(=O)[C@H](C)NC(=O)[C@H](Cc1cnc[nH]1)NC(=O)[C@@H]1CCCN1C(=O)[C@@H](NC(=O)[C@H](CC(C)C)NC(=O)[C@H](CO)NC(=O)[C@H](Cc1ccccc1)NC(=O)[C@H](CC(C)C)NC(=O)[C@@H](N)Cc1ccccc1)[C@@H](C)CC)C(=O)NCC(=O)NCC(=O)N[C@@H](CC(C)C)C(=O)N[C@H](C(=O)N[C@@H](CO)C(=O)N[C@@H](C)C(=O)N[C@@H](Cc1ccccc1)C(=O)N[C@@H](CCCCN)C(N)=O)[C@@H](C)CC` [FLFSLIPHAIGGLISAFK], for which the MIC in [2] was 20 µM (≈ 38.6 µg/mL); in [3], at least 150 µM; in experiment [6] it was at least 64 µM.
Take `CC[C@H](C)[C@H](NC(=O)[C@@H](NC(=O)[C@H](CC(N)=O)NC(=O)[C@H](CO)NC(=O)[C@H](CC(C)C)NC(=O)[C@@H](NC(=O)CN)C(C)C)C(C)C)C(=O)NCC(=O)N[C@@H](Cc1ccc(O)cc1)C(=O)N[C@@H](CC(C)C)C(=O)N[C@@H](CCCCN)C(=O)N[C@@H](CCCCN)C(=O)N[C@@H](CC(C)C)C(=O)NCC(=O)N[C@H](C(=O)NCC(=O)N[C@@H](C)C(=O)N[C@@H](CC(C)C)C(=O)N[C@@H](CC(N)=O)C(=O)N[C@@H](C)C(=O)N[C@H](C(=O)N[C@@H](CC(C)C)C(=O)N[C@@H](CCCCN)C(=O)N[C@@H](CCC(N)=O)C(N)=O)C(C)C)[C@@H](C)O` [GVLSNVIGYLKKLGTGALNAVLKQ]: the MIC in experiment [1] was 144 µM (≈ 353 µg/mL); in [8] it was 25.3 µM (≈ 62.2 µg/mL); in [13] it was at least 144 µM; in [14], 25.3 µM (≈ 62.2 µg/mL); in [15] it was 72 µM (≈ 177 µg/mL); in experiment [16] it was 72 µM (≈ 177 µg/mL).
